According to patent publication US20100160442A1, “FORMULATIONS FOR CANCER TREATMENT” (priority 2006, published 2010):
Values after ≈ are worked out from the molar mass of the structure shown.

Legend:
Type in all cases: physicochemical
[1] = Equilibrium solubility of 4-iodo-3-nitrobenzamide, overnight at 25° C., measured by HPLC; settings: for solubility: 25 °C, thermodynamic from solid
Experimental: Excess 4-iodo-3-nitrobenzamide (“BA”) was equilibrated overnight (>16 hr) at 25° C. in purified water, 0.01M HCl (pH2), 0.01M NaOH ([…]), and 0.9% NaCl. Following dilution, the solubility of the drug was measured by HPLC.
Excess 4-iodo-3-nitrobenzamide was equilibrated overnight (>16 hr) at 25° C. in solutions of purified water containing various concentrations of cyclodextrins including hydroxypropyl-β-cyclodextrin (Kleptose® from Roquette) (HPBCD), sulfobutyl ether-β-cyclodextrin (Captisol® from Cyclex) (SBEBCD), and Hyroxypropyl-γ-cyclodextrin (Cavamax W8® from Wacker) (HPGCD). Following dilution, the solubility of the drug was measured by HPLC.
Excess 4-iodo-3-nitrobenzamide was equilibrated overnight (>16 hr) at 25° C. in purified water containing various concentrations of the surfactants: polyethylene sorbitan monooleate (Polysorbate 80), polyoxyethylene sorbitan monolaurate (Polysorbate 20), Cremophor EL (BASF), Cremophor RH40 (BASF), Poloxamer 118, and Solutol HS-15 (BASF). Following dilution, the solubility of the drug was measured by HPLC.
Excess 4-iodo-3-nitrobenzamide was equilibrated overnight (>16 hr) at 25° C. in solutions of purified water containing various co-solvents including ethanol, glycofurol, glycerin formal, benzyl alcohol, N,N, dimethylacetamide (DMA), polyethylene glycol (PEG) 400, and propylene glycol. Following dilution, the solubility of the drug was measured by HPLC.
Excess 4-iodo-3-nitrobenzamide was equilibrated overnight (>16 hr) at 25° C. in solutions in purified water containing mixtures of solubilizers. Following dilution, the solubility of the drug was measured by HPLC.

[2] = Compounding studies: time for drug substance to dissolve in 25% HPBCD
Experimental: 1. 300 mg of BA was added to 30 ml of a 25% HPBCD (containing 0.6% saline) and mixed using a magnetic stirrer. The drug substance dissolved in 4 hours. This is deemed to be an unacceptably long time for a viable manufacturing process and it was decided to evaluate a procedure involving dissolving the drug substance directly in the HPBCD. 2. In a second study 500 mg of BA dissolved in a 50 ml of a 25% HPBCD vehicle (no saline) in approx 90 minutes. The dissolution rate of BA was deemed to be a more acceptable time and provides some prospect for a viable larger scale process. Further excipients could be added after the drug substance has been dissolved.

[3] = Saturated solubility of BA in solvents, 25° C., absorbance at 320 nm; settings: thermodynamic from solid

solubility ([1]; 100% glycerin formal, organic solvent or mixture, Glycerin Formal 100%, 25° C., read-out: Solubility): 15.1 mg/mL (≈ 51.8 mM) | solubility ([1]; 100% glycofurol, organic solvent or mixture, Glycofurol 100%, 25° C., read-out: Solubility): 15 mg/mL (≈ 51.3 mM) | Enhancement ([1]; Benzyl alcohol 100%): 85.3 | Enhancement ([1]; Cremophor EL 10%): 19.2 | Enhancement ([1]; Cremophor RH40 10%): 18.5 | Enhancement ([1]; DMA 5%): 7.6 | Enhancement ([1]; DMA 100%): 392.6 | Enhancement ([1]; Ethanol 50%): 31.4 | Enhancement ([1]; Ethanol 100%): 77.2 | Enhancement ([1]; Glycerin Formal 50%): 19.0 | Enhancement ([1]; Glycerin Formal 100%): 83.2 | Enhancement ([1]; Glycofurol 50%): 54.1 | Enhancement ([1]; Glycofurol 100%): 82.3 | Enhancement ([1]; HPBCD 10%, vs no solubilizer): 26.7 | Enhancement ([1]; HPBCD 20%, vs no solubilizer): 54.8 | Enhancement ([1]; HPBCD 25%, vs no solubilizer): 63.0 | Enhancement ([1]; HPBCD 40%, vs no solubilizer): 70.2 | Enhancement ([1]; HPGCD 25%, vs no solubilizer): 1.5 | Enhancement ([1]; PEG 400 50%): 42.1 | Enhancement ([1]; Poloxamer 118 10%): 2.4 | Enhancement ([1]; Polysorbate 20 10%): 20.1 | Enhancement ([1]; Polysorbate 20 100%): 59.6 | Enhancement ([1]; Polysorbate 80 10%): 17.2 | Enhancement ([1]; Polysorbate 80 100%): 92.8 | Enhancement ([1]; Propylene glycol 50%): 12.3 | Enhancement ([1]; SBEBCD 25%, vs no solubilizer): 60.6 | Enhancement ([1]; Solubilizer None 0%): 1.0 | Enhancement ([1]; Solutol HS 15 25%): 36.0 | Enhancement ([1]; Solutol HS 15 30%): 41.0 | solubility ([1]; purified water containing mixtures of solubilizers, aqueous with cosolvent or surfactant or cyclodextrin, 5% Polysorbate 80/10% EtOH/40% PEG 400, 25° C., read-out: Solubility): 1.23 mg/mL (≈ 4.21 mM) | solubility ([1]; purified water containing mixtures of solubilizers, aqueous with cosolvent or surfactant or cyclodextrin, 10% EtOH/10% Polysorbate 80, 25° C., read-out: Solubility): 2.3 mg/mL (≈ 7.88 mM) | solubility ([1]; purified water containing mixtures of solubilizers, aqueous with cosolvent or surfactant or cyclodextrin, 10% EtOH/40% PEG 400, 25° C., read-out: Solubility): 3.42 mg/mL (≈ 11.7 mM) | solubility ([1]; purified water containing mixtures of solubilizers, aqueous with cosolvent or surfactant or cyclodextrin, 10% EtOH/40% PEG 400,/5% Benzyl Alcohol, 25° C., read-out: Solubility): 3.11 mg/mL (≈ 10.7 mM) | solubility ([1]; purified water containing mixtures of solubilizers, aqueous with cosolvent or surfactant or cyclodextrin, 10% glycofurol, 40% PEG 400, 25° C., read-out: Solubility): 6.12 mg/mL (≈ 21 mM) | solubility ([1]; purified water, water, Purified Water, 25° C., read-out: Solubility): 0.182 mg/mL (≈ 0.623 mM) | solubility ([1]; water without solubilizer, water, water, no solubilizer, summary of Table 1, read-out: Solubility in water without any solubilizer): ≤ 0.2 mg/mL | Time for drug substance to dissolve ([2]; 300 mg of BA in 30 ml of 25% HPBCD containing 0.6% saline, magnetic stirrer): 4 h | Time for drug substance to dissolve ([2]; 500 mg of BA in 50 ml of 25% HPBCD vehicle (no saline)): approx 90 minutes | solubility ([3]; 35% v/v DMA in Capmul PG-8, 25 °C, oil or lipid, 35% v/v DMA in Capmul PG-8, read from the graph of FIG. 2, read-out: Saturated solubility): ~220 mg/mL (≈ 753 mM) | solubility ([3]; solvent (liquid filled capsule vehicle), 25 °C, oil or lipid, 10% v/v DMA in Capmul, 25° C., read-out: BA Solubility): 57 mg/mL (≈ 195 mM) | solubility ([3]; solvent (liquid filled capsule vehicle), 25 °C, oil or lipid, 20% v/v DMA in Capmul, 25° C., read-out: BA Solubility): 89 mg/mL (≈ 305 mM) | solubility ([3]; solvent (liquid filled capsule vehicle), 25 °C, oil or lipid, 30% v/v DMA in Capmul, 25° C., read-out: BA Solubility): 176 mg/mL (≈ 603 mM) | solubility ([3]; solvent (liquid filled capsule vehicle), 25 °C, oil or lipid, 40% DMA in Capmul, 25° C., read-out: BA Solubility): 276 mg/mL (≈ 945 mM) | solubility ([3]; solvent (liquid filled capsule vehicle), 25 °C, oil or lipid, 40% v/v Transcutol in Capmul, 25° C., read-out: BA Solubility): 73 mg/mL (≈ 250 mM) | solubility ([3]; solvent (liquid filled capsule vehicle), 25 °C, oil or lipid, 100% Capmul, 25° C., read-out: BA Solubility): 32 mg/mL (≈ 110 mM) | solubility ([3]; solvent (liquid filled capsule vehicle), 25 °C, oil or lipid, 100% Labrafil, 25° C., read-out: BA Solubility): 18 mg/mL (≈ 61.6 mM) | solubility ([3]; solvent (liquid filled capsule vehicle), 25 °C, organic solvent or mixture, 20% v/v glycerol, 3% v/v water in PEG 400, 25° C., read-out: BA Solubility): 192 mg/mL (≈ 657 mM) | solubility ([3]; solvent (liquid filled capsule vehicle), 25 °C, organic solvent or mixture, 25% w/v Solutol in PEG 400, 25° C., read-out: BA Solubility): 224 mg/mL (≈ 767 mM) | solubility ([3]; solvent (liquid filled capsule vehicle), 25 °C, organic solvent or mixture, 25% w/v Vit E TPGS in PEG 400, 25° C., read-out: BA Solubility): 204 mg/mL (≈ 699 mM) | solubility ([3]; solvent (liquid filled capsule vehicle), 25 °C, organic solvent or mixture, 100% NMP, 25° C., read-out: BA Solubility): 319 mg/mL (≈ 1090 mM) | solubility ([3]; solvent (liquid filled capsule vehicle), 25 °C, organic solvent or mixture, 100% PEG 400, 25° C., read-out: BA Solubility): 186 mg/mL (≈ 637 mM) | solubility ([3]; solvent (liquid filled capsule vehicle), 25 °C, organic solvent or mixture, 100% Transcutol, 25° C., read-out: BA Solubility): 192 mg/mL (≈ 657 mM)
Structure (SMILES): NC(=O)c1ccc(I)c([N+](=O)[O-])c1 [BA, 4-iodo-3-nitrobenzamide]
